aPTT and IC50 data for 15 compounds are collected here from patent US20160244437A1, “SUBSTITUTED PHENYLALANINE DERIVATIVES” (BAYER PHARMA AKTIENGESELLSCHAFT, priority 2013, published 2016).

One assay concerns human and animal plasma. Nature of the assay: Determination of anticoagulatory activity: activated partial thromboplastin time (aPTT) in plasma. The note with it: concentration of test substance which brings about a 1.5-fold extension of the aPTT; plasma in vitro, C.K. Prest kit. As to the method:
The anticoagulatory activity of the test substances is determined in vitro in human and animal plasma (for example mouse, rat, rabbit, pig and dog plasma). To this end, blood is drawn off in a mixing ratio of sodium citrate/blood of 1:9 using a 0.11 molar sodium citrate solution as receiver. Immediately after the blood has been drawn off, it is mixed thoroughly and centrifuged at about 4000 g for 15 minutes. The supernatant is pipetted off.
The activated partial thromboplastin time (aPTT) is determined in the presence of varying concentrations of test substance or the corresponding solvent using a commercial test kit (C.K. Prest from Diagnostica Stago). The test compounds are incubated with the plasma and the PTT reagent (cephalin, kaolin) at 37° C. for 3 minutes. Coagulation is then started by addition of a 25 mM aqueous calcium chloride solution, and the time when coagulation occurs is determined. The concentration of test substance which brings about a 1.5-fold extension of the aPTT is determined.

In another assay the target is T1, human factor XIa (Homo sapiens, UniProt P03951).
T1 construct: purchased Kordia
T1 sequence (P03951 388-625 limits assumed): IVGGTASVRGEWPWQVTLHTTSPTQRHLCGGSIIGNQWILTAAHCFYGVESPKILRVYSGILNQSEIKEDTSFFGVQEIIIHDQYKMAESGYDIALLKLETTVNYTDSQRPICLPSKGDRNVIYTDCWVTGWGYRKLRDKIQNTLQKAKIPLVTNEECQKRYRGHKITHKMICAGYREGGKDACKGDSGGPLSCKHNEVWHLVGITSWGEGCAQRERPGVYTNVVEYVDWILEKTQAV
T1 sequence (P03951 19-387 partner limits assumed): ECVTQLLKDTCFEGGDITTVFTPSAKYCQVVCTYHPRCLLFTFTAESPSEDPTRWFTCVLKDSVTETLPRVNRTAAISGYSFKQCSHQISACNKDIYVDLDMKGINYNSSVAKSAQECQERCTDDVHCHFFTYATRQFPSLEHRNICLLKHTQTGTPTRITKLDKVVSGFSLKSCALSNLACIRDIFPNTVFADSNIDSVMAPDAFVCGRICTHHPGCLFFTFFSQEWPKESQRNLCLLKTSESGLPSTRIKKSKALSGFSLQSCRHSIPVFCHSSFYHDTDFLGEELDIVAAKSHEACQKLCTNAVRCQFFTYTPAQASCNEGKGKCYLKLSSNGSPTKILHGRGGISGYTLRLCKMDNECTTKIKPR
Briefly: Measurement of FXIa inhibition (fluorogenic peptide substrate Boc-Glu(OBzl)-Ala-Arg-AMC). Type of assay: biochemical. The note with it: factor XIa from Kordia 0.45 nM, 15 min pre-incubation, 30 min at 22° C., fluorescence. The protocol: The factor XIa inhibition of the substances according to the invention is determined using a biochemical test system which utilizes the reaction of a peptidic factor XIa substrate to determine the enzymatic activity of human factor XIa. Here, factor XIa cleaves from the peptic factor XIa substrate the C-terminal aminomethylcoumarin (AMC), the fluorescence of which is measured. The determinations are carried out in microtitre plates.
Test substances are dissolved in dimethyl sulphoxide and serially diluted in dimethyl sulphoxide (3000 μM to 0.0078 μM; resulting final concentrations in the test: 50 μM to 0.00013 μM). In each case 1 μl of the diluted substance solutions is placed into the wells of white microtitre plates from Greiner (384 wells). Subsequently, the following are added successively: 20 μl of assay buffer (50 mmol/l Tris buffer pH 7.4; 100 mmol/l sodium chloride; 5 mmol/l calcium chloride; 0.1% bovine serum albumin) and 20 μl of factor XIa from Kordia (0.45 nM in assay buffer). After 15 min of incubation, the enzyme reaction is started by addition of 20 μl of the factor XIa substrate Boc-Glu(OBzl)-Ala-Arg-AMC dissolved in assay buffer (10 μM in assay buffer) from Bachem, the mixture is incubated at room temperature (22° C.) for 30 min and fluorescence is then measured (excitation: 360 nm, emission: 460 nm). The measured emissions of the test batches with test substance are compared to those of control batches without test substance (only dimethyl sulphoxide instead of test substance in dimethyl sulphoxide), and IC50 values are calculated from the concentration/activity relationships.

Counter-ions that a name gives are not always drawn.

The term IC50 denotes the point on the concentration scale where inhibition reaches its midpoint. As for `CN(C)c1ncc(-c2cccc(C[C@H](NC(=O)[C@H]3CC[C@H](CN)CC3)C(=O)Nc3ccc(-c4nnc(Cl)[nH]4)cc3)c2)cn1` [Example 93, N-alpha-{[trans-4-(Aminomethyl)cyclohexyl]carbonyl}-N-[4-(3-chloro-4H-1,2,4-triazol-5-yl)phenyl]-3-[2-(dimethylamino)pyrimidin-5-yl]-L-phenylalaninamide hydrochloride], the aPTT in the assay on human and animal plasma was 0.48 µmol/L. The compound also returned an IC50 at human factor XIa of 5.3 nM.
On the same counts, the results for `Cc1cc(C(=O)NC2C3CNCC32)ccc1-c1cccc(C[C@H](NC(=O)C2CCC(CN)CC2)C(=O)Nc2ccc(-c3nnn[nH]3)cc2)c1` (stereo partly drawn) [Example 33, 3′-[(2S)-2-({[trans-4-(Aminomethyl)cyclohexyl]carbonyl}amino)-3-oxo-3-{[4-(1H-tetrazol-5-yl)phenyl]amino}propyl]-N-(3-azabicyclo[3.1.0]hex-6-yl)-2-methylbiphenyl-4-carboxamide hydrochloride] are 0.08 µmol/L and 7.6 nM.
Regarding `Cc1nc(N)ccc1-c1cccc(C[C@H](NC(=O)[C@H]2CC[C@H](CN)CC2)C(=O)Nc2ccc(-c3nnn[nH]3)cc2)c1` [Example 66, N-alpha-{[trans-4-(Aminomethyl)cyclohexyl]carbonyl}-3-(6-amino-2-methylpyridin-3-yl)-N-[4-(1H-tetrazol-5-yl)phenyl]-L-phenylalaninamide hydrochloride], the aPTT in the assay on human and animal plasma was 0.12 µmol/L. This compound registered an IC50 against human factor XIa of 3.3 nM.
On the same counts, the results for `CN(C)c1ncc(-c2cccc(C[C@H](NC(=O)[C@H]3CC[C@H](CN)CC3)C(=O)Nc3ccc(-c4nnn[nH]4)cc3)c2)cn1` [Example 70, N-alpha-{[trans-4-(Aminomethyl)cyclohexyl]carbonyl}-3-[2-(dimethylamino)pyrimidin-5-yl]-N-[4-(1H-tetrazol-5-yl)phenyl]-L-phenylalaninamide hydrochloride] are 0.36 µmol/L and 2.9 nM.
On the same counts, the results for `NC[C@H]1CC[C@H](C(=O)N[C@@H](Cc2cccc(-c3cncc(S(=O)(=O)NC4CCNCC4)c3)c2)C(=O)Nc2ccc(-c3nnc(Cl)[nH]3)cc2)CC1` [Example 106, N-alpha-{[trans-4-(Aminomethyl)cyclohexyl]carbonyl}-N-[4-(3-chloro-4H-1,2,4-triazol-5-yl)phenyl]-3-[5-(piperidin-4-ylsulphamoyl)pyridin-3-yl]-L-phenylalaninamide hydrochloride] are 0.13 µmol/L and 5.7 nM.
In turn, `NC[C@H]1CC[C@H](C(=O)N[C@@H](Cc2cccc(-c3cccc(C(=O)N4CCOCC4)c3)c2)C(=O)Nc2ccc(-c3nnn[nH]3)cc2)CC1` [Example 47, trans-4-(Aminomethyl)-N-[(2S)-3-[3′-(morpholin-4-ylcarbonyl)biphenyl-3-yl]-1-oxo-1-{[4-(1H-tetrazol-5-yl)phenyl]amino}propan-2-yl]cyclohexanecarboxamide hydrochloride] had an aPTT with human and animal plasma of 0.34 µmol/L. In addition, half-maximal inhibition against human factor XIa (IC50) required 5.2 nM.
As for `Cc1ccc(S(=O)(=O)N(C)C)cc1-c1cccc(C[C@H](NC(=O)[C@H]2CC[C@H](CN)CC2)C(=O)Nc2ccc(-c3noc(=O)[nH]3)cc2)c1` [Example 23, trans-4-(Aminomethyl)-N-[(2S)-3-[5′-(dimethylsulphamoyl)-2′-methylbiphenyl-3-yl]-1-oxo-1-{[4-(5-oxo-4,5-dihydro-1,2,4-oxadiazol-3-yl)phenyl]amino}propan-2-yl]cyclohexanecarboxamide hydrochloride], 3.6 nM corresponded to half-maximal inhibition against human factor XIa (IC50). This lies in the single-digit nanomolar range.
Same read-out and setting: for `Cc1cc(C(=O)N[C@@H]2CCCNC2=O)ccc1-c1cccc(C[C@H](NC(=O)[C@H]2CC[C@H](CN)CC2)C(=O)Nc2ccc3nc(C(F)(F)C(F)(F)F)[nH]c3c2)c1` [Example 63, 3′-[(2S)-2-({[trans-4-(Aminomethyl)cyclohexyl]carbonyl}amino)-3-oxo-3-{[2-(pentafluoroethyl)-1H-benzimidazol-6-yl]amino}propyl]-2-methyl-N-[(3R)-2-oxopiperidin-3-yl]biphenyl-4-carboxamide hydrochloride] the value was 52 nM; for `Cc1ccc(S(=O)(=O)N2CCOCC2)cc1-c1cccc(C[C@H](NC(=O)[C@H]2CC[C@H](CN)CC2)C(=O)Nc2ccc(-c3nnn[nH]3)cc2)c1` [Example 3, trans-4-(Aminomethyl)-N-[(2S)-3-[2′-methyl-5′-(morpholin-4-ylsulphonyl)biphenyl-3-yl]-1-oxo-1-{[4-(1H-tetrazol-5-yl)phenyl]amino}propan-2-yl]cyclohexanecarboxamide hydrochloride], 0.9 nM.
Take `Cc1cnccc1-c1cccc(C[C@H](NC(=O)[C@H]2CC[C@H](CN)CC2)C(=O)Nc2ccc(-c3n[nH]c(=O)[nH]3)cc2)c1` [Example 89, N-alpha-{[trans-4-(Aminomethyl)cyclohexyl]carbonyl}-3-(3-methylpyridin-4-yl)-N-[4-(5-oxo-4,5-dihydro-1H-1,2,4-triazol-3-yl)phenyl]-L-phenylalaninamide hydrochloride]: in the assay with human and animal plasma, the aPTT was determined as 0.46 µmol/L.
`NC[C@H]1CC[C@H](C(=O)N[C@@H](Cc2cccc(-c3ccccc3C(F)(F)F)c2)C(=O)Nc2ccc(-c3nnn[nH]3)cc2)CC1` [Example 84, trans-4-(Aminomethyl)-N-{(25)-1-oxo-1-{[4-(1H-tetrazol-5-yl)phenyl]amino}-3-[2′-(trifluoromethyl)biphenyl-3-yl]propan-2-yl}cyclohexanecarboxamide hydrochloride] came in with a concentration for half-maximal inhibition (IC50) against human factor XIa of 3.1 nM.
On the same count and under the same terms, for `CN1CCN(c2cc(-c3cccc(C[C@H](NC(=O)[C@H]4CC[C@H](CN)CC4)C(=O)Nc4ccc5[nH]c(=O)[nH]c5c4)c3)ccn2)CC1` [Example 76, N-alpha-{[trans-4-(Aminomethyl)cyclohexyl]carbonyl}-3-[2-(4-methylpiperazin-1-yl)pyridin-4-yl]-N-(2-oxo-2,3-dihydro-1H-benzimidazol-5-yl)-L-phenylalaninamide hydrochloride] the value was 59 nM.
Still for that read-out and setting: for `CN1CCN(c2ncc(-c3cccc(C[C@H](NC(=O)[C@H]4CC[C@H](CN)CC4)C(=O)Nc4ccc(-c5nnn[nH]5)cc4)c3)cn2)CC1` [Example 69, N-alpha-{[trans-4-(Aminomethyl)cyclohexyl]carbonyl}-3-[2-(4-methylpiperazin-1-yl)pyrimidin-5-yl]-N-[4-(1H-tetrazol-5-yl)phenyl]-L-phenylalaninamide hydrochloride] the value was 4.9 nM.
The same measure, in the same setting: for `Cc1cnccc1-c1cccc(C[C@H](NC(=O)[C@H]2CC[C@H](CN)CC2)C(=O)Nc2ccc3[nH]c(=O)[nH]c3c2)c1` [Example 75, N-alpha-{[trans-4-(Aminomethyl)cyclohexyl]carbonyl}-3-(3-methylpyridin-4-yl)-N-(2-oxo-2,3-dihydro-1H-benzimidazol-5-yl)-L-phenylalaninamide hydrochloride] the value was 35 nM; for `CN(C)c1ccc(-c2cccc(C[C@H](NC(=O)[C@H]3CC[C@H](CN)CC3)C(=O)Nc3ccc(-c4nnn[nH]4)cc3)c2)cn1` [Example 71, N-alpha-{[trans-4-(Aminomethyl)cyclohexyl]carbonyl}-3-[6-(dimethylamino)pyridin-3-yl]-N-[4-(1H-tetrazol-5-yl)phenyl]-L-phenylalaninamide hydrochloride], 3.1 nM.
